A short description of data set [1]: Absorption/fluorescence spectroscopy and quantum yield under simulated physiological conditions (10% DMSO in PBS). The class given is physicochemical. The settings on record: excitation at 330 nm, PBS buffer containing 10% DMSO, pH 7.4, 37° C.; for quantum yield Φf: quinine sulfate standard. The method, then:
All spectroscopic measurements of Compound 1 and the triazole products 1-A and 1-B were performed in a mixture of 10% DMSO in PBS buffer (FIG. 11). UV-vis spectra and fluorescence spectra were recorded on a Molecular Devices Spectramax M5 spectrometer. For each experiment, the absorbance spectra were measured within an absorbance range of 0.07 to 0.7 (l=[…]). Quantum yields were determined from the slope of the integrated fluorescence emission between 360 and 550 nm (excitation at 330 nm) versus absorbance using quinine sulfate (Φf=0.54±0.0 3)[^S3] as fluorescence standard. The quantum yield was calculated as an average of 4 points according to the following equation: Φsample=Φstandard(Astandard/Asample)(Fsample/Fstandard)(nsample/nstandard)^2 where “Φ” is the quantum yield, “A” is the absorbance at the excitation frequency, “F” is the area under the emission curve, and “n” is the refractive index of the solvent.
Formation of triazoles 1-A and 1-B were accompanied by a significant increase in fluorescence intensity with a large Stokes shift into a standard range for coumarin emission (FIG. 8a).

Data set [2] is described as follows: SPAAC kinetics with benzyl azide monitored by 1H-NMR. The settings on record: CD3CN, 25° C. How it is done:
The cycloaddition of compound 1 with benzyl azide was a second-order reaction. […] The second-order rate constant (k) was determined to be 0.015 M^−1s^−1 at 25° C. […] (Agard, et al., J. Am. Chem. Soc. 2004, 126, 15046; Ning, et al., Angew. Chem. Int. Ed. 2008, 47, 2253).
(§1) Experiment I: Compound 1 and benzyl azide were predissolved in CD3CN, and then mixed at equimolar concentration of 20 mM. The reaction was monitored by ^1H-NMR analysis over a period of 1 h. The concentration of each component was determined, based on the concentration of initial compound 1, by integration at multiple chemical shifts in the ^1H-NMR spectrum. By plotting 1/[1](M^−1) vs. time (sec), a second order rate constant in unit of M^−1s^−1 was determined using linear regression analysis. This procedure was repeated 3 times with a concentrated of 20 mM to afford a rate constant of 0.012 M^−1s^−1 at 25° C. (FIG. 4B).

Data set [3] can be described thus: Photophysical properties of Compound 1 and its benzyl azide triazole regioisomers 3a/3b. The class given is physicochemical. The settings on record: for fluorescence emission λmax: upon irradiation; for extinction coefficient relative to Compound 1: at λmax 330 nm. The source says: In one embodiment, Compound 1 reacted with benzyl azide in ethanol/water (1:1) in the absence of copper(I) catalyst to afford the cycloaddition product as a mixture of two triazole reigoisomers 3a and 3b. These two trizaole isomers were separated, and their photophysical properties were investigated, respectively. […] The quantum yields of triazole compounds 3a (Φf=0.23) and 3b (Φf=0.22) were 20-fold higher than Compound 1 (Φf=0.011).

A further data set concerns CL1-5 cells. The data set is described as follows: Fluorescence labeling of azido-glycoconjugates in live cells (time-lapse and confocal microscopy). Format: cell-based. The method, then:
To observe the fluorescence labeled azido-glycoconjugates in cells, CL1-5 cells (a lung cancer cell line) were seeded on chamber slide (2.5×10^4 cells/0.5 mL per wells) and incubated in culture medium (RPMI-1640 supplemented with 10% FBS, 100 U/mL penicillin, 100 μg/mL streptomycin, 1 mM L-glutamine and 1 mM sodium pyruvate) with either 200 μM control sugar (peracetylated N-acetylmannosamine, Ac4ManNAc) or azido-sugar (peracetylated azido-N-acetylmannosamine, Ac4ManNAz) for 3 days.
For Time-lapse imaging of live cells, experiments were carried out using a confocal microscope (TCS-SP5-MP-SMD, Leica) equipped with an incubator to keep the cells in culture conditions. Prewashed cells were incubated with 100 μM compound 1 in PBS buffer with 10% DMSO and images of cell were acquired at 450 nm emission and in 5-min intervals.
For comparing the localization of azido-glycans, probe-labeled cells were washed with PBS, fixed with 3% paraformaldehyde in PBS at room temperature for 20 min, permeablized with 0.2% Triton X-100 in PBS at room temperature for 20 min, and blocked with 3% bovine serum albumin in PBS at room temperature for 30 min. Cells were stained with fluorescein conjugated WGA lectin for Golgi, and propidium iodide (PI) for nucleus (FIG. 12).
Performance of Compound 1 in live cell imaging was investigated. Highly invasive lung cancer cells, CL1-5, were cultured in the presence of peracetylated azido-N-acetylmannosamine (Ac4ManNAz, 200 μM) for 3 days to metabolically produce the azido-sialic acid expressed cells. As a negative control, CL1-5 cells were grown in the presence of peracetylated N-acetylmannosamine (Ac4ManNAc, 200 μM). A time course experiment was conducted by treating 100 μM of Compound 1 (once) and conducted by exposing the cells at 5-min intervals under no-wash and no-fixation conditions (FIG. 8 and FIG. 12). […] Furthermore, the localization of azido-containing glycoconjugates in living cells was visualized by confocal microscopy. The cells labeled by Compound 1 were subsequently stained with fluorescein-conjugated WGA lectin (a Golgi marker) and propidium iodide (PI, a nucleus marker).

Data set [4] in a line: Time course of ligation with ManNAz by fluorescence spectroscopy. The conditions noted are these: emission 435 nm, excitation 330 nm; 10% DMSO in PBS, 37° C. The method, then: To probe the SPAAC reaction under the conditions that would be more typical for biomolecule labeling, the fluorescence response and time course for the reaction of Compound 1 with N-azidoacetylmannosamine (ManNAz) were investigated.
A solution of Compound 1 ([…]) and N-azidoacetylmannosamine (15 μmol) in a mixture of 10% DMSO in PBS buffer (2.5 mL) was incubated at 37° C. The fluorescence emission intensity at 435 nm upon excitation at 330 nm was monitored in 5 min intervals. For each point the fluorescence intensity was measured over a period of 5 sec and averaged over a total of 3 points. In a control experiment the same conditions were used except that N-acetylmannosamine (15 μmol) was added to the solution.

The nature of data set [5]: SPAAC kinetics with N-azidoacetylmannosamine monitored by 1H-NMR. The conditions noted are these: CD3OD/D2O (5:1, v/v), equimolar 20 mM, 25° C. How it is done: as §1, with “II:” for “I:”, “N-azidoacetylmannosamine” for “benzyl azide”, “CD3OD/D2O (5:1, v/v),” for “CD3CN,”, “0.010” for “0.012”, “11).” for “4B).”
The nature of data set [6]: Photophysical properties of alkynyl coumarin-indolium compound C and its CuAAC triazole product 18. Format: physicochemical. The settings on record: 18: in aqueous solution; for extinction coefficient ε: at λmax 500 nm.

As for `O=c1ccc2cc3c(cc2o1)C#CCCCC3` [Compound 1, 10,11-Dehydro-6,7,8,9-tetrahydro-cycloocta[g]chromen-2-one], in data set [1], the fluorescence emission band is listed as 405 nm and the “quantum yield Φf” value was 0.011. The “second order rate constant” value in data set [2] (benzyl azide, equimolar 20 mM, repeated 3 times) stood at 0.012 M⁻¹ s⁻¹. Also, the “second-order rate constant (k)” value in data set [2] (cycloaddition with benzyl azide, 19 mM) is 0.015 M⁻¹ s⁻¹. Besides, in data set [3], the “absorption band λmax” value was 330 nm, the “quantum yield Φf” value is 0.011 and the “fluorescence emission λmax” value was determined as 400 nm. For the same molecule, the “fluorescence of Ac4ManNAz treated cells” value with CL1-5 cells (100 μM probe, 5-min intervals, no-wash, no-fixation) is given as “time-dependent increase of fluorescence intensity”. Also, in the data set on CL1-5 cells (100 μM probe, CL1-5 cells grown with 200 μM Ac4ManNAc), the “fluorescence of control cells (background labeling)” value was “almost no fluorescence staining”. Moreover, the “time until cell labeling complete” value in the data set on CL1-5 cells (100 μM probe, CL1-5 cells pre-treated with 200 μM Ac4ManNAz for 3 days, no-wash, no-fixation) amounted to 1.5 h. Besides, in the data set with CL1-5 cells (confocal microscopy, co-staining with fluorescein-WGA lectin (Golgi) and propidium iodide (nucleus)), the “localization of probe-labeled sialylated glycans” value is “partially co-localized with Golgi apparatus staining, but not with nucleus staining”. In addition, the “time until fluorescence intensity reached a plateau” value in data set [4] is reported as “less than 1 h”. Moreover, the “second order rate constant” value in data set [5] amounted to 0.010 M⁻¹ s⁻¹.
In the case of `O=c1ccc2cc3c(cc2o1)-c1nnn(Cc2ccccc2)c1CCCC3` [Compound 1-A, 10-Benzyl-6,7,8,9-tetrahydro-cyclooctatriazolo[5,4-g]chromen-2 (2H)-one], in data set [1], the fluorescence emission band is 435 nm and the “quantum yield Φf” value is 0.23.
In the case of `O=C(Cn1nnc2c1CCCCc1cc3ccc(=O)oc3cc1-2)NC1C(O)OC(CO)[C@@H](O)C1O` (stereo partly drawn) [Compound 1-B, N-[2-(11-Oxo-4,6,7,11-tetrahydrochromeno[7′,6′:3,4]cycloocta[1,2-d][1,2,3]triazol-3 (5H)-yl)]acetamido-2-deoxy-α,β-D-mannopyranose], in data set [1], the fluorescence emission band is given as 435 nm and the “quantum yield Φf” value is reported as 0.21.
In the case of `O=c1ccc2cc3c(cc2o1)-c1nnn(Cc2ccccc2)c1CCCC3` [Compound 3a], in data set [3], the “absorption band λmax” value is on record as 330 nm, the “quantum yield relative to Compound 1” value amounted to 20 fold, the “quantum yield Φf” value worked out at 0.23 and the “extinction coefficient relative to Compound 1” value is ~2.5 fold. Also, in data set [3], the “fluorescence emission λmax” value was found to be 400 nm.
For `O=c1ccc2cc3c(cc2o1)-c1c(nnn1Cc1ccccc1)CCCC3` [Compound 3b], in that order: 330 nm, 20 fold, 0.22, ~2.5 fold and 400 nm.
As for `CC1(C)C(/C=C/c2cc3ccc(-c4cn(Cc5ccccc5)nn4)cc3oc2=O)=[N+](CCCCS(=O)(=O)[O-])c2ccccc21` [Compound 18], in data set [6], the “absorption λmax” value was determined as 500 nm, the “fluorescence quantum yield Φf” value was determined as 0.56, the “fluorescence λmax” value worked out at 520 nm and the “extinction coefficient ε” value is reported as 32,000 M^−1 cm^−1.
For `C#Cc1ccc2cc(/C=C/C3=[N+](CCCCS(=O)(=O)[O-])c4ccccc4C3(C)C)c(=O)oc2c1` [Compound C, (E)-7-ethynyl-3-[N-(4-sulfonatobutyl)-3,3-dimethyl-3H-indolium-2-yl]ethenyl-2H-chromen-2-one], in that order: 500 nm, 0.017, 515 nm and 8,600 M^−1 cm^−1.
